This note sets out measurements from patent US8039532B2, “Heterocyclic compound, ultraviolet absorbent and composition containing the same” (Fujifilm Corporation, priority 2007, dated 2011).

Holding throughout (assay type): physicochemical
Data set [1] in a line: UV spectrum of sample solutions in ethyl acetate (Example 38). To be noted: ethyl acetate solution, 1 cm quartz cell. Here is the method:
The absorption maximum wavelength and the half width specified in the present invention can be determined easily by a skilled person in the art. The measuring methods are described, for example, in Chemical Society of Japan Ed., “Experimental Chemistry Lecture, Chapter 7, Spectroscopy II”, 4th Ed., (Maruzen, 1992), p. 180 to 186. Specifically, they are determined by dissolving a sample in a suitable solvent and measuring the spectrum in a spectrophotometer by using two quartz or glass cells for the sample and control. For example, the solvent for use is required to be capable of dissolving the sample, have no absorption in the measurement wavelength range, have smaller interaction with the solute molecule, and have relatively low volatility. Any solvent may be used, as long as it satisfies the conditions above. In the present invention, the measurement is made by using ethyl acetate (EtOAc) as the solvent.
The absorption maximum wavelength and the half width of the dyes in the present invention are determined by preparing a solution in ethyl acetate as the solvent at a concentration of approximately 5×10^−5 mol·dm^−3 and by measurement while using a quartz cell having an optical path length of 10 mm.
The spectral half width is described, for example, in Chemical Society of Japan Ed., “Experimental Chemistry Lecture, Chapter 3 Basic Operation III”, 4th Ed., (Maruzen, 1991), p. 154. The half width is described in the literature above by using wave number as abscissa, but the half width is plotted against wavelength in the present invention and thus, the unit of the half value width is nm. Specifically, it is defined as the width of the absorption band at an absorbance of ½ of that at the absorption maximum wavelength and used as an indicator of the absorption spectral shape.
One mg of the Exemplified Compound (1) was dissolved in 100 ml of ethyl acetate, to give a sample solution. Similarly, sample solutions of Exemplified Compounds (2), (11), (12), (24), (81), (82), (87) and (88), respectively, were prepared. In addition, two mg of the comparative compound 1 was dissolved in 100 ml of ethyl acetate, to give a sample solution. Similarly, sample solutions of the comparative compounds 2 (the exemplified compound VIII described in JP-B-49-11155), 11 and 12, respectively, were also prepared. The UV spectrum of each sample solution was determined in a 1 cm quartz cell by using Spectrophotometer UV-3600 (product name) manufactured by Shimadzu Corporation. Based on the thus-obtained spectrum chart, were calculated the maximum absorption wavelength, the molar extinction coefficient (ε) at the maximum absorption wavelength and the half width (a width of absorption band corresponding to a half extinction at the maximum absorption wavelength).

The nature of data set [2]: Degree of coloring of UV agent-containing polyethylene terephthalate films (Example 43). To be noted: PET film 50 μm; for absorbance at 420 nm / absorbance at 440 nm / absorbance at 460 nm: quantity giving 1% at 400 nm; for Colored (visual): visual examination; for absorbance at 400 nm: quantity adjusted so that value at 400 nm became 1%. Details: key to Colored (visual): ∘: Not colored; Δ: Slightly colored; x: Distinctly colored. Here is the method:
To 15 g of polyethylene terephthalate, the exemplified compounds (81) and (82) were added, respectively, in a quantity such that absorbance at 400 nm became 1% at the time of forming a film with a thickness of 50 μm. After fusion mixing at 265° C., UV agent-containing polymer films (401) and (402) were prepared by cooling and stretching. Further, UV agent-containing polymer films (403) and (404) were prepared by mixing and thin film-making in the same manner as the above films, except that a comparative compound Za and the abovementioned comparative compound 12 were used in place of the exemplified compounds.
A degree of coloring in each of the prepared samples was evaluated by measuring absorbance of the sample at 420 nm 440 nm and 460 nm, and also by examining them visually.

The nature of data set [3]: Light fastness of ethyl acetate solutions under xenon lamp irradiation (Example 39). The following applies: ethyl acetate solution, xenon lamp with UV filter removed, 170,000 lux, one week; transmittance at maximum absorption wavelength. As to the method: Was dissolved 5 mg of the exemplified compound (1) in 100 mL of ethyl acetate and then the resulting solution was diluted with ethyl acetate so that absorbance became the range of from 0.95 to 1.05. Similarly, sample solutions of Exemplified Compounds (2), (11), (12), (24), (81) and (82) and comparative compounds A and B, respectively, were prepared. The absorbance of each sample solution was determined in a 1 cm quartz cell by using Spectrophotometer UV-3600 (product name) manufactured by Shimadzu Corporation. The cell containing the sample solution was photoirradiated by a xenon lamp with its UV filter removed at an illuminance of 170,000 lux, and the amount of each ultraviolet absorbent remaining after irradiation for one week was determined. The residual amount was calculated according to the following Formula: Residual amount (%)=100×(100−Transmittance after irradiation)/(100−Transmittance before irradiation)
The transmittance is a value determined at the maximum absorption wavelength of each compound.

For the compound `CCCCC(CC)C(=O)Oc1ccc(OC(=O)C(CC)CCCC)c2c1SC(=C(C#N)C#N)S2` (centres unmarked) [Comparative compound 1], in data set [1], the “Half width (nm)” value was found to be 45 nm; the “ε, molar extinction coefficient at the maximum absorption wavelength” value (from here on “ε, molar extinction coefficient”) is listed as 24000; the “λmax (nm), maximum absorption wavelength” value was found to be 369 nm.

Take `CCCCCCCCCCCCOc1ccc(OCCCCCCCCCCCC)c2c1SC(=C(C#N)C#N)S2` [Comparative compound 2]: in data set [1], the “Half width (nm)” value was 46 nm; the “ε, molar extinction coefficient” value was found to be 23000; the “λmax (nm), maximum absorption wavelength” value came out at 363 nm.

Consider `CCCCC(CC)COc1ccc(OCC(CC)CCCC)c2c1SC(=C(C#N)C(=O)OCC)S2` (centres unmarked) [Comparative compound 12], for which, in data set [2], the “coloring of the film (in words)” value is recorded as “coloring was also observed”, the “absorbance at 420 nm” value was found to be 65%, the “absorbance at 440 nm” value came out at 72% and the “absorbance at 460 nm” value stood at 78%. Besides, in data set [2], the “Colored (visual)” value is “Δ to x” and the “absorbance at 400 nm” value came out at 1%. Also, in data set [1], the “Half width (nm)” value is 39 nm; the “ε, molar extinction coefficient” value came out at 28000; the “λmax (nm), maximum absorption wavelength” value amounted to 360 nm.

For `COc1ccc(C(=O)c2ccc(OC)cc2O)c(O)c1` [Comparative compound A], the “Residual amount (%)” value in data set [3] amounted to 76%.

With `COc1ccc(C(=O)CC(=O)c2ccc(C(C)(C)C)cc2)cc1` [Comparative compound B], the “Residual amount (%)” value in data set [3] is on record as 38%.

Turning to `CC(C)(C)CC(C)(C)c1cc(Cc2cc(C(C)(C)CC(C)(C)C)cc(-n3nc4ccccc4n3)c2O)c(O)c(-n2nc3ccccc3n2)c1` [Za], in data set [2], the “coloring of the film (in words)” value was “more colored yellow”, the “absorbance at 420 nm” value was 45%, the “absorbance at 440 nm” value was found to be 65% and the “absorbance at 460 nm” value was found to be 85%. Also, in data set [2], the “Colored (visual)” value was “x” and the “absorbance at 400 nm” value was 1%.
